Test system: Weibliche Laborratten
Assay: Rat feeding trial (relative weight gain versus untreated control)
Assay type: in vivo, Laborratten vom Typ SPF Wistar
Details: female SPF Wistar rats 90-110 g, 100 ppm active substance in feed ad lib, 13 days, relative to untreated control
Description: Weibliche Laborratten 90-110 g schwer vom Typ SPF Wistar (Züchtung Hagemann) werden ad lib mit Standard Rattenfutter, das mit der gewünschten Menge Wirkstoff versetzt ist, gefüttert. Jeder Versuchsansatz wird mit Futter der identischen Charge durchgeführt, so daß Unterschiede in der Zusammensetzung des Futters die Vergleichbarkeit der Ergebnisse nicht beeinträchtigen können.
Die Ratten erhalten Wasser ad lib.
Jeweils 12 Ratten bilden eine Versuchsgruppe und werden mit Futter, das mit der gewünschten Menge Wirkstoff versetzt ist, gefüttert. Eine Kontrollgruppe erhält Futter ohne Wirkstoff. Die Versuchsgruppen werden so zusammengestellt, daß das durchschnittliche Körpergewicht sowie die Streuung in den Körpergewichten der Ratten in jeder Versuchsgruppe gleich ist, so daß eine Vergleichbarkeit der Versuchsgruppen untereinander gewährleistet ist.
Die Tiere werden vor Versuchsbeginn 2 Tage an die neuen Haltungsbedingungen adaptiert, während dieser Zeit wird Futter ohne Wirkstoffzusatz gegeben. Danach erhalten die Tiere 13 Tage lang Futter, das Wirkstoff enthält. Es wird die relative Gewichtszunahme im Verhältnis zur unbehandelten Kontrolle bestimmt.

SMILES: CC(C)(C)NCC(O)c1cnc(N)nc1 (stereo not shown) [compound 1, 1-(2-Amino-5-pyrimidinyl)-2-(tert.-butylamino)-ethanol]
- relative Gewichtszunahme: 30%
